Results on 15 compounds are retold here after patent US20120065187A1 (ALCON RESEARCH, LTD, priority 2008, published 2012).

The target of one assay is T1, human H4 (Homo sapiens, UniProt Q9H3N8).
T1 construct: host or cells: CHO-K1
As to the kind of experiment: In vitro histamine receptor cell-based assay (aequorin bioluminescence), H4 antagonism. As to conditions: CHO-K1 cells expressing human H4, aequorin and Gα16; histamine at EC80; read-out: H4 Antagonist EC50. The method, boiled down:
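CHO-K1 cells stably expressing human H4, Gα16 and mitochondrial aequorin, loaded with 5 μM coelenterazine-h, preincubated 15 min at room temperature with compound, then challenged with histamine at EC80.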

The target of another assay is T2, human H1 (Homo sapiens, UniProt P35367).
T2 construct: host or cells: CHO-K1
T2 sequence (P35367 whole entry): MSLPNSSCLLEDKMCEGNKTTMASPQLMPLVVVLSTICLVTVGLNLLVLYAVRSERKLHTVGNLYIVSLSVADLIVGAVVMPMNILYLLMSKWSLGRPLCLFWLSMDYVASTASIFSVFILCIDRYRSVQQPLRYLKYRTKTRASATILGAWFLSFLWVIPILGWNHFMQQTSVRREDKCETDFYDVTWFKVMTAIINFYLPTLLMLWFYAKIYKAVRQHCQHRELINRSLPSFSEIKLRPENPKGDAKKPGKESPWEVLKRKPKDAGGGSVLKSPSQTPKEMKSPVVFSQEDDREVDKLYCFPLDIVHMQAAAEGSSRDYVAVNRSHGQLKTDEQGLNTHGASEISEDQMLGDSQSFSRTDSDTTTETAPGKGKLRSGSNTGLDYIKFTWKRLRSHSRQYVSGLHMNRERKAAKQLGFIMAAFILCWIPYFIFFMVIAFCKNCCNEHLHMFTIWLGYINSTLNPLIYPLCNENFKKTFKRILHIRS
As to the kind of experiment: In vitro histamine receptor cell-based assay (aequorin bioluminescence), H1 antagonism. Conditions: CHO-K1 cells expressing human H1 and aequorin; histamine at EC80; read-out: H1 Antagonist EC50. Here is the method:
The cell-based assays utilize an aequorin dependent bioluminescence signal. Doubly-transfected, stable CHO-K1 cell lines expressing human H1 or H4, mitochondrion-targeted aequorin, and (H4 only) human G protein Gα16 are obtained from Perkin-Elmer. Cells are maintained in F12 (Ham's) growth medium, containing 10% (vol./vol.) fetal bovine serum, penicillin (100 IU/mL), streptomycin (0.1 mg/mL), zeocin (0.25 mg/mL) and geneticin (0.40 mg/mL). Cell media components are from Invitrogen, Inc. One day prior to assay, the growth medium is replaced with the same, excluding zeocin and geneticin.
For assay preparation, growth medium is aspirated, and cells are rinsed with calcium-free, magnesium-free phosphate-buffered saline, followed by two to three minute incubation in Versene (Invitrogen, Inc.) at 37° C. Assay medium (DMEM:F12 [50:50], phenol-red free, containing 1 mg/mL protease-free bovine serum albumin) is added to collect the released cells, which are then centrifuged. The cell pellet is re-suspended in assay medium, centrifuged once more, and re-suspended in assay medium to a final density of 5×10^6 cells/mL. Coelenterazine-h dye (500 μM in ethanol) is added to a final concentration of 5 μM, and mixed immediately. The conical tube containing the cells is then wrapped with foil to protect the light-sensitive dye. The cells are incubated for four hours further at room temperature (approximately 21° C.) with end-over-end rotation to keep them in suspension.
Just before assay, the dye-loaded cells are diluted to 0.75×10^6 cells/mL (H1 receptor) or 1.5×10^6 cells/mL (H4 receptor) with additional assay medium. Cells are dispensed to 1536 well micro-titer plates at 3 μL/well. To assay receptor antagonism, 60 nl of 100× concentration test compounds in 100% dimethyl sulfoxide (DMSO) are dispensed to the wells, one compound per well, by passive pin transfer, and the plates are incubated for 15 minutes at room temperature. Assay plates are then transferred to a Lumilux bioluminescence plate reader (Perkin-Elmer) equipped with an automated 1536 disposable tip pipette. The pipette dispenses 3 μL/well of agonist (histamine, at twice the final concentration, where final concentration is a previously determined EC80) in assay medium, with concurrent bioluminescence detection. Agonist activity of test compounds is excluded by separate assays that measure response to test compounds immediately, without added histamine agonist.
CCD image capture on the Lumilux includes a 5 second baseline read prior to agonist addition, and generally a 40 second read per plate after agonist addition. A decrease in bioluminescence signal (measured either as area-under-the-curve, or maximum signal amplitude minus minimum signal amplitude) correlates with receptor antagonism in a dose dependent manner. The negative control is DMSO lacking any test compound. For antagonist assays, the positive controls are diphenhydramine (2-Diphenylmethoxy-N,N-dimethylethylamine, 10 μM final concentration, H1 receptor) or JNJ7777120 (1-[(5-Chloro-1H-indol-2-yl)carbonyl]-4-methyl-piperazine, 10 μM final concentration, H4 receptor). Efficacy is measured as a percentage of positive control activity.

SMILES strings stand for the structures.

T1 sequence (Q9H3N8 whole entry): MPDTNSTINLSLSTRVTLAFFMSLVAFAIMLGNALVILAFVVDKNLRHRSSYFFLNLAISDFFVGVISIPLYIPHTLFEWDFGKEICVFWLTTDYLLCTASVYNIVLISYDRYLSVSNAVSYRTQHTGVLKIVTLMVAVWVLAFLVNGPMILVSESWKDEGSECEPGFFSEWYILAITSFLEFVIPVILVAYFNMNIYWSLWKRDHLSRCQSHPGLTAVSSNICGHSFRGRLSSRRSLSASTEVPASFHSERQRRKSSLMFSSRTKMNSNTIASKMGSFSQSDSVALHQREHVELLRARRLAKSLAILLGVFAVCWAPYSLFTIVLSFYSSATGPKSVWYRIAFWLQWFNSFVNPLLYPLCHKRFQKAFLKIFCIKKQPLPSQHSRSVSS

As for `CN(CCN)c1nc2ccc(Cl)cc2n2cnnc12` [Example 79, N^1-(8-chloro-[1,2,4]triazolo[4,3-a]quinoxalin-4-yl)-N-1-methylethane-1,2-diamine], the half-maximal effective concentration (EC50) on human H4 and on human H1 was greater than 10 µM throughout.
Take `CNCCOc1nc2ccc(Cl)cc2n2cnnc12` [Example 80, 2-(8-chloro-[1,2,4]triazolo[4,3-a]quinoxalin-4-yloxy)-N-methylethanamine]: the 50% effective concentration (EC50) at human H4 and on human H1 was greater than 10 µM throughout.
With `NC1CCN(c2nc3ccc(Cl)cc3n3cnnc23)CC1` [Example 81, 1-(8-chloro-[1,2,4]triazolo[4,3-a]quinoxalin-4-yl)piperidin-4-amine], the EC50 at human H4 and on human H1 was greater than 10 µM each time.
Take `CC1(C)CN(c2nc3ccc(Cl)cc3n3cnnc23)CCN1` [Example 82, 8-chloro-4-(3,3-dimethylpiperazin-1-yl)-[1,2,4]triazolo[4,3-a]quinoxaline]: the EC50 at human H4 is less than 10 µM; at human H1, greater than 10 µM.
Consider `C[C@@H]1CN(c2nc3ccc(Cl)cc3n3cnnc23)C[C@H](C)N1` [Example 83, 8-chloro-4-((3S,5R)-3,5-dimethylpiperazin-1-yl)-[1,2,4]triazolo[4,3-a]quinoxaline], for which the concentration giving a half-maximal response (EC50) on human H4 and at human H1 was greater than 10 µM in each case.
For the compound `Cc1nnc2c(N3CCN(C)CC3)nc3ccc(Cl)cc3n12` [Example 84, 8-chloro-1-methyl-4-(4-methylpiperazin-1-yl)-[1,2,4]triazolo[4,3-a]quinoxaline], the concentration for a half-maximal effect (EC50) at human H4 is less than 10 µM; at human H1, greater than 10 µM.
With `Cc1nnc2c(N3CCNCC3)nc3ccc(Cl)cc3n12` [Example 85, 8-chloro-1-methyl-4-(piperazin-1-yl)-[1,2,4]triazolo[4,3-a]quinoxaline], the EC50 at human H4 and on human H1 was greater than 10 µM each time.
With `CCc1nnc2c(N3CCN(C)CC3)nc3ccc(Cl)cc3n12` [Example 86, 8-chloro-1-ethyl-4-(4-methylpiperazin-1-yl)-[1,2,4]triazolo[4,3-a]quinoxaline], the values for the 50% effective concentration (EC50) on human H4 and on human H1 were less than 10 µM and greater than 10 µM, respectively.
For `CC(C)c1nnc2c(N3CCN(C)CC3)nc3ccc(Cl)cc3n12` [Example 87, 8-chloro-1-isopropyl-4-(4-methylpiperazin-1-yl)-[1,2,4]triazolo[4,3-a]quinoxaline] the same measures were less than 10 µM and greater than 10 µM.
For `C=Cc1ccc2nc(N3CCN(C)CC3)c3nncn3c2c1` [Example 88, 4-(4-methylpiperazin-1-yl)-8-vinyl-[1,2,4]triazolo[4,3-a]quinoxaline] the same measures were less than 10 µM and greater than 10 µM.
Consider `C=Cc1ccc2nc(N3CCNCC3)c3nncn3c2c1` [Example 89, 4-(piperazin-1-yl)-8-vinyl-[1,2,4]triazolo[4,3-a]quinoxaline], for which the EC50 was less than 10 µM on human H4 and greater than 10 µM at human H1.
Taken in the same sequence, the figures for `CCc1ccc2nc(N3CCN(C)CC3)c3nncn3c2c1` [Example 90, 8-ethyl-4-(4-methylpiperazin-1-yl)-[1,2,4]triazolo[4,3-a]quinoxaline] were less than 10 µM and greater than 10 µM.
Taken in the same sequence, the figures for `CCc1ccc2nc(N3CCNCC3)c3nncn3c2c1` [Example 91, 8-ethyl-4-(piperazin-1-yl)-[1,2,4]triazolo[4,3-a]quinoxaline] were less than 10 µM and greater than 10 µM.
Taken in the same sequence, the figures for `Clc1ccc2nc(N3CCNCC3)n3ncnc3c2c1` [Example 92, 9-Chloro-5-(piperazin-1-yl)-[1,2,4]triazolo[1,5-c]quinazoline] were less than 10 µM and greater than 10 µM.
For the compound `Cc1nc2c3cc(Cl)c(Cl)cc3nc(N3CCN(C)CC3)n2n1` [Example 93, 8,9-Dichloro-2-methyl-5-(4-methylpiperazin-1-yl)-[1,2,4]triazolo[1,5-c]quinazoline], the half-maximal effective concentration (EC50) at human H4 is less than 10 µM; at human H1 it was greater than 10 µM.
